Measurements taken from the supplement of paper PMC10883282.
Counter-ions that a name gives are not always drawn. ± gives the standard deviation of the averaged measurements.

Test system: G401
Test: relative viability vs DMSO control (72 h) (fraction); higher = more viable cells
Summary of the method: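 Relative viability is percent growth read by ATPLite and averaged over up to triplicate wells. Sarcoma cells were seeded in 384-well plates to reach 80–90% confluence and given 2.5 µl of serially diluted compound after 24 h, from source plates of 10 mM to 0.0002 mM. Incubation lasted 72 h at 37 °C, 5% CO2, with 0.1% DMSO vehicle and a 5 µM positive control, and the data were rescaled so 1 equals full and 0 equals none.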

SMILES | relative viability (0.00017 µM) | relative viability (0.00051 µM) | relative viability (0.00152 µM) | relative viability (0.00457 µM) | relative viability (0.01372 µM) | relative viability (0.04115 µM) | relative viability (0.1235 µM) | relative viability (0.3704 µM) | relative viability (1.111 µM) | relative viability (3.333 µM) | relative viability (10 µM)
CC(C)(C)c1cc(NC(=O)Nc2ccc(-c3cn4c(n3)sc3cc(OCCN5CCOCC5)ccc34)cc2)no1 [Quizartinib] | 1.02 ± 0.04 | 1.01 ± 0.017 | 1.05 ± 0.048 | 1.06 ± 0.026 | 1.04 ± 0.039 | 0.984 ± 0.052 | 1 ± 0.013 | 0.926 ± 0.011 | 0.971 ± 0.021 | 0.945 ± 0.051 | 0.87 ± 0.023
CNC(=O)c1ccc(-c2cnc3ncc(Cc4ccc5ncccc5c4)n3n2)cc1F [Capmatinib] | 1.01 ± 0.023 | 0.988 ± 0.024 | 1.03 ± 0.027 | 1.04 ± 0.019 | 0.977 ± 0.03 | 1.01 ± 0.058 | 0.9706 ± 0.0066 | 1.02 ± 0.0027 | 0.981 ± 0.01 | 0.929 ± 0.012 | 0.877 ± 0.053
CC(C)N1CCN(Cc2cnc(-c3cc(-c4cccc5[nH]ccc45)cc4[nH]ncc34)o2)CC1 [Nemiralisib] | 0.962 ± 0.043 | 0.933 ± 0.035 | 0.883 ± 0.015 | 0.921 ± 0.033 | 0.904 ± 0.035 | 0.911 ± 0.048 | 0.916 ± 0.013 | 0.877 ± 0.01 | 0.833 ± 0.021 | 0.735 ± 0.026 | 0.609 ± 0.012
C[C@@H](c1ccc2nccn2c1)n1nnc2ncc(-c3cnn(C)c3)nc21 [Volitinib] | 1.01 ± 0.029 | 1.01 ± 0.042 | 1.03 ± 0.035 | 1.04 ± 0.044 | 1 ± 0.018 | 1.03 ± 0.019 | 1.03 ± 0.015 | 1.04 ± 0.046 | 1.03 ± 0.049 | 0.987 ± 0.026 | 0.955 ± 0.025
COc1c(OCCCN2CCOCC2)ccc2c1N=C(NC(=O)c1cnc(N)nc1)N1CCN=C21 [Copanlisib] | 1.024 ± 0.0087 | 1 ± 0.024 | 0.959 ± 0.039 | 0.7934 ± 0.0059 | 0.702 ± 0.018 | 0.582 ± 0.033 | 0.537 ± 0.037 | 0.499 ± 0.043 | 0.476 ± 0.047 | 0.468 ± 0.02 | 0.477 ± 0.044
CCN1CCN(Cc2ccc(Nc3ncc(F)c(-c4cc(F)c5nc(C)n(C(C)C)c5c4)n3)nc2)CC1 [Abemaciclib] | 0.985 ± 0.03 | 0.964 ± 0.018 | 0.924 ± 0.048 | 0.922 ± 0.061 | 0.857 ± 0.051 | 0.822 ± 0.037 | 0.796 ± 0.044 | 0.786 ± 0.048 | 0.758 ± 0.017 | 0.746 ± 0.037 | 0.6941 ± 0.0055
C[C@]1(O)C[C@@H](c2nc(-c3ccc4ccc(-c5ccccc5)nc4c3)c3c(N)nccn32)C1 [Linsitinib] | 1 ± 0.063 | 0.974 ± 0.026 | 1.02 ± 0.048 | 0.955 ± 0.013 | 0.992 ± 0.023 | 0.894 ± 0.034 | 0.791 ± 0.049 | 0.668 ± 0.013 | 0.627 ± 0.007 | 0.562 ± 0.017 | 0.466 ± 0.026
Cc1ccc(NC(=O)c2ccc(CN3CCN(C)CC3)cc2)cc1Nc1nc(-c2cccnc2)cs1 [Masitinib] | 0.973 ± 0.058 | 0.9736 ± 0.0054 | 0.9669 ± 0.0091 | 0.9556 ± 0.0058 | 0.979 ± 0.026 | 0.971 ± 0.047 | 0.931 ± 0.024 | 0.843 ± 0.056 | 0.687 ± 0.0084 | 0.388 ± 0.014 | 0.0983 ± 0.005
CN1CCN(c2ccc3nc(-c4c(N)c5c(F)cccc5[nH]c4=O)[nH]c3c2)CC1 [Dovitinib] | 1.02 ± 0.045 | 1.014 ± 0.0059 | 1.04 ± 0.021 | 1.018 ± 0.0017 | 1 ± 0.023 | 1.01 ± 0.051 | 0.966 ± 0.034 | 0.92 ± 0.019 | 0.632 ± 0.069 | 0.256 ± 0.013 | 0.13 ± 0.0053
CC(=O)Nc1cccc(-n2c(=O)n(C3CC3)c(=O)c3c(Nc4ccc(I)cc4F)n(C)c(=O)c(C)c32)c1 [Trametinib] | 1.01 ± 0.054 | 1 ± 0.019 | 0.952 ± 0.018 | 0.906 ± 0.029 | 0.845 ± 0.032 | 0.765 ± 0.017 | 0.627 ± 0.011 | 0.38 ± 0.027 | 0.184 ± 0.0096 | 0.144 ± 0.014 | 0.12 ± 0.012
C=CC(=O)N1CCC[C@@H](n2nc(-c3ccc(Oc4ccccc4)cc3)c3c(N)ncnc32)C1 [Ibrutinib] | 1.03 ± 0.025 | 1.03 ± 0.095 | 1.03 ± 0.037 | 1.01 ± 0.0057 | 1.01 ± 0.025 | 1.05 ± 0.013 | 0.998 ± 0.072 | 0.995 ± 0.05 | 1.02 ± 0.013 | 0.922 ± 0.045 | 0.668 ± 0.049
COc1cc2/c(=N/c3ccc(Br)cc3F)nc[nH]c2cc1OCC1CCN(C)CC1 [Vandetanib] | 0.983 ± 0.019 | 0.98623 ± 0.00074 | 0.989 ± 0.019 | 0.99 ± 0.028 | 0.993 ± 0.025 | 0.968 ± 0.025 | 0.971 ± 0.015 | 0.988 ± 0.033 | 0.87 ± 0.013 | 0.736 ± 0.0092 | 0.0218 ± 0.0004
C[C@@H]1COCCN1c1cc(-c2ccnn2C)c2ccnc(-c3ccn[nH]3)c2n1 | 0.996 ± 0.018 | 0.9815 ± 0.0068 | 1 ± 0.011 | 1.01 ± 0.023 | 0.997 ± 0.02 | 0.915 ± 0.026 | 0.803 ± 0.043 | 0.675 ± 0.0044 | 0.598 ± 0.0066 | 0.517 ± 0.012 | 0.486 ± 0.012
COc1cccc2c1C(=O)c1c(O)c3c(c(O)c1C2=O)C[C@@](O)(C(=O)CO)C[C@@H]3O[C@H]1C[C@H](N)[C@H](O)[C@H](C)O1 [Doxorubicin Hydrochloride] | 1.03 ± 0.011 | 1.02 ± 0.018 | 1 ± 0.041 | 0.937 ± 0.021 | 0.8493 ± 0.0066 | 0.681 ± 0.019 | 0.476 ± 0.041 | 0.079 ± 0.017 | 0.0407 ± 0.0027 | 0.096 ± 0.0082 | 0.101 ± 0.0054
O=C(Nc1cnn2ccc(N3CCC[C@@H]3c3cc(F)ccc3F)nc12)N1CC[C@H](O)C1 [Larotrectinib] | 1.032 ± 0.0041 | 1.03 ± 0.016 | 1.021 ± 0.0029 | 1.04 ± 0.033 | 1.04 ± 0.03 | 1.01 ± 0.019 | 1.02 ± 0.028 | 1 ± 0.014 | 1 ± 0.048 | 0.97 ± 0.025 | 0.916 ± 0.034
Cc1cc(C)c(/C=C2\C(=O)Nc3ccccc32)[nH]1 [Semaxanib] | 0.957 ± 0.044 | 0.981 ± 0.031 | 0.957 ± 0.043 | 0.976 ± 0.037 | 0.964 ± 0.036 | 0.948 ± 0.019 | 0.9755 ± 0.0068 | 0.9895 ± 0.0091 | 0.932 ± 0.046 | 0.904 ± 0.05 | 0.813 ± 0.067
CC1(C)CNc2cc(NC(=O)c3cccnc3NCc3ccncc3)ccc21 [Motesanib] | 0.984 ± 0.047 | 0.982 ± 0.042 | 0.973 ± 0.019 | 0.955 ± 0.03 | 0.979 ± 0.015 | 0.962 ± 0.022 | 0.949 ± 0.022 | 0.934 ± 0.036 | 0.9058 ± 0.0034 | 0.84 ± 0.034 | 0.684 ± 0.02
Cc1nc(-c2cn3c(n2)-c2ccc(-c4cnn(C(C)(C)C(N)=O)c4)cc2OCC3)n(C(C)C)n1 [Taselisib] | 0.995 ± 0.022 | 0.968 ± 0.045 | 0.969 ± 0.032 | 0.923 ± 0.011 | 0.866 ± 0.019 | 0.7976 ± 0.0064 | 0.68 ± 0.03 | 0.592 ± 0.027 | 0.499 ± 0.021 | 0.439 ± 0.019 | 0.347 ± 0.018
CC(C)NC(=O)C1CCC(n2c(NC(=O)c3ccc(F)cc3)nc3ccc(CN4CCC(C(C)(C)O)CC4)cc32)CC1 (centres undefined) [Belizatinib] | 1.01 ± 0.043 | 0.997 ± 0.054 | 1.01 ± 0.061 | 1 ± 0.064 | 1.02 ± 0.022 | 1.01 ± 0.015 | 0.974 ± 0.038 | 0.877 ± 0.026 | 0.606 ± 0.015 | 0.305 ± 0.027 | 0.154 ± 0.02
